ChEMBL document CHEMBL1135071, “Di- and trisubstituted pyrazolo[1,5-a]pyridine derivatives: synthesis, dopamine receptor binding and ligand efficacy” (Bioorg Med Chem Lett, 2002)

Tests used:
D(2) dopamine receptor [1] = target: T1, D(2) dopamine receptor (Homo sapiens, UniProt P14416); assay: In vitro binding affinity at human cloned dopamine receptor D2 (long) stably expressed in CHO cells by [3H]-Spiperone displacement.; format: cell-based
D(2) dopamine receptor [2] = target: T1, D(2) dopamine receptor; assay: In vitro binding affinity at human cloned dopamine receptor D2 (short) stably expressed in CHO cells by [3H]spiperone displacement.; format: cell-based
D(3) dopamine receptor = D(3) dopamine receptor (Homo sapiens, UniProt P35462); assay: In vitro binding affinity at human cloned dopamine receptor D3 stably expressed in CHO cells by [3H]spiperone displacement.; format: cell-based
D(3) dopamine receptor, sequence (P35462 whole entry): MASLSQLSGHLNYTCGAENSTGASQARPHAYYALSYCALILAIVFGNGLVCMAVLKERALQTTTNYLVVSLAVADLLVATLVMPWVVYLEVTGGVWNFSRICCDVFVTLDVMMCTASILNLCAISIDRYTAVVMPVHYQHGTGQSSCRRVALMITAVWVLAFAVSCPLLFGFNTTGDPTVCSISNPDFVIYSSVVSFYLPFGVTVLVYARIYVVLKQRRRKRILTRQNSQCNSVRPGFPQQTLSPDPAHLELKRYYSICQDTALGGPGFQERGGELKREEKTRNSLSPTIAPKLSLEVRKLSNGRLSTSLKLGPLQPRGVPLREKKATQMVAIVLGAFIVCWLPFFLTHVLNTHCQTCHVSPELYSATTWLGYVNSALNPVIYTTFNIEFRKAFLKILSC

D(4) dopamine receptor [3] = target: T2, D(4) dopamine receptor (Homo sapiens, UniProt P21917); assay: In vitro binding affinity at human cloned dopamine receptor D4 stably expressed in CHO cells by [3H]spiperone displacement.; format: cell-based
T2 sequence (P21917 whole entry): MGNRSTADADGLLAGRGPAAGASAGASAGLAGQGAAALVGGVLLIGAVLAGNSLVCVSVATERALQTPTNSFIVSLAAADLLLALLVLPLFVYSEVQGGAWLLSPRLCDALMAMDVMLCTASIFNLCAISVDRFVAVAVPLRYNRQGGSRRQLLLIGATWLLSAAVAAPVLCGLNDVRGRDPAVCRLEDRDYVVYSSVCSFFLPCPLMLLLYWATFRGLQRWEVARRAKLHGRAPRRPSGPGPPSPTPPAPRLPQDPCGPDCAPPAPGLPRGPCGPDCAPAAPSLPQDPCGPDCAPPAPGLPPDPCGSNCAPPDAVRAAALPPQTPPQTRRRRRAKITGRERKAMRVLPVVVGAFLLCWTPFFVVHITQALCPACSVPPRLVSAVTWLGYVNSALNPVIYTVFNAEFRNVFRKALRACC

[4] = Compound was tested in vitro for its ability to compete with [3H]-ketanserin at 5-hydroxytryptamine 2 receptor in porcine brain homogenate; format: tissue-based
[5] = target: T3, D(4) dopamine receptor (Homo sapiens) (UniProt P21917); assay: Intrinsic activity as rate of incorporation of [3H]thymidine in human D4.2 receptor established in mitogenesis assay relative to quinpirole; format: functional
T3 sequence (whole entry): T2 sequence (P21917 whole entry)

D(2) dopamine receptor [6] = target: T1, D(2) dopamine receptor; assay: Binding affinity of compound was tested in vitro for its ability to compete with [3H]spiperone radioligand at cloned human Dopamine receptor D2L stably expressed in CHO cells; format: cell-based
D(4) dopamine receptor [7] = target: T2, D(4) dopamine receptor; assay: Tested for the effective concentration against human D4.2 receptor in CHO 10001 cells established in mitogenesis assay; format: functional, cell-based

T1 sequence (P14416 whole entry): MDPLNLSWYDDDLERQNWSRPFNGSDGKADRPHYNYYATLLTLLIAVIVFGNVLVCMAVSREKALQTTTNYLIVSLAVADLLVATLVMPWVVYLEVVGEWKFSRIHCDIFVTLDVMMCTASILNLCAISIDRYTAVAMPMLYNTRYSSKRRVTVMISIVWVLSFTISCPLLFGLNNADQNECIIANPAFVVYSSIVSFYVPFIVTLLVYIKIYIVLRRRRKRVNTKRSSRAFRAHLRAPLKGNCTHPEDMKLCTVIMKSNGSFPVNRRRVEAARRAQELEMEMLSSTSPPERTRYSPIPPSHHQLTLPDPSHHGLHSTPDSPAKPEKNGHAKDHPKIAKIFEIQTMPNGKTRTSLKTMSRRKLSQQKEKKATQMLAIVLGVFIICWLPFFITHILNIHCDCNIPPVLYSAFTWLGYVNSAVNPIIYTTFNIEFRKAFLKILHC

Ki (D(2) dopamine receptor [1]) [µM] | Ki (D(2) dopamine receptor [2]) [µM] | Ki (D(3) dopamine receptor) [µM] | Ki (D(4) dopamine receptor [3]) [µM] | Ki [4] [µM] | Intrinsic activity [5] [%] | Ki (D(2) dopamine receptor [6]) [µM] | EC50 (D(4) dopamine receptor [7]) [µM] | Compound
3.7 | 6.2 | 4.6 |  |  |  |  |  | C#Cc1cccc2c(CN3CCN(c4ccc(Cl)cc4)CC3)cnn12
15 | 15 | 5.7 | 0.029 |  |  |  |  | Fc1ccc(-c2cccc3c(CN4CCN(c5ccc(Cl)cc5)CC4)cnn23)cc1
28 | 24 | 3.1 | 0.037 |  |  |  |  | Cc1nn2c(-c3ccccc3)cccc2c1CN1CCN(c2ccc(Cl)cc2)CC1
28 | 22 | 2.6 | 0.02 |  |  |  |  | OCc1ccc2c(CN3CCN(c4ccc(Cl)cc4)CC3)cnn2c1
 | 58 | 21 | 0.0023 | 1 | 26 | 59 | 0.012 | Cc1nn2c(C#N)cccc2c1CN1CCN(c2ccc(Cl)cc2)CC1
9.5 | 9.2 | 5.9 | 0.0026 |  |  |  |  | O=Cc1cccc2c(CN3CCN(c4ccc(Cl)cc4)CC3)cnn12
0.64 | 0.4 | 0.41 | 0.18 |  |  |  |  | Clc1ccc(N2CCN(Cc3cnn4c(N5CCN(Cc6ccccc6)CC5)cccc34)CC2)cc1
13 | 12 | 9.4 |  |  |  |  |  | Cc1cccn2ncc(CN3CCN(c4ccc(Cl)cc4)CC3)c12
 | 45 | 26 | 0.0015 | 0.18 | 31 | 44 | 0.0015 | N#Cc1cccc2c(CN3CCN(c4ccc(Cl)cc4)CC3)cnn12
14 | 16 | 3.8 | 0.087 |  |  |  |  | Cc1nn2c(-c3ccc(F)cc3)cccc2c1CN1CCN(c2ccc(Cl)cc2)CC1
3.1 | 2.8 | 2 | 0.0028 |  |  |  |  | C[Si](C)(C)c1cccc2c(CN3CCN(c4ccc(Cl)cc4)CC3)cnn12
4.9 | 5 | 3.8 |  |  |  |  |  | Cc1cccc2c(CN3CCN(c4ccc(Cl)cc4)CC3)cnn12
0.3 | 0.12 | 0.27 | 0.026 |  |  |  |  | Cc1nn2c(N3CCN(Cc4ccccc4)CC3)cccc2c1CN1CCN(c2ccc(Cl)cc2)CC1
56 | 79 | > 100 | 0.11 |  |  |  |  | OCc1cccn2ncc(CN3CCN(c4ccc(Cl)cc4)CC3)c12
21 | 25 | 17 | 0.0015 |  |  |  |  | C#Cc1cccc2c(CN3CCN(c4ccc(Cl)cc4)CC3)c(C)nn12
5.4 | 2.8 | 0.84 | 0.0076 |  |  |  |  | Clc1ccc(N2CCN(Cc3cnn4c(-c5ccccc5)cccc34)CC2)cc1
